Test results published in patent US20250296922A1, “POLYSUBSTITUTED PYRROLIDINE DERIVATIVE, PREPARATION METHOD THEREFOR AND USE THEREOF” (SHANGHAI WENNAI THERAPEUTICS CO LTD, priority 2023, published 2025).

What was measured:
Nav1.8 sodium channel = Nav1.8 sodium channel (Homo sapiens (Human), UniProt Q9Y5Y9); test: NaV1.8 blocking activity, manual patch clamp; format: cell-based; details: CHO cell line stably expressing Nav1.8
Procedure: The NaV1.8 blocking activity was determined by using a manual patch clamp technique to detect the effect of the subject on the channel currents of stably overexpressed Nav1.8.
CHO cell line stably expressing the Nav1.8 sodium channel was used for the experiments, gene information: sodium channel, voltage-gated, type 8, alpha (SCN10A), cDNA strictly similar to GenBank accession number: NM 006514.
Cells were cultured in HAM'S/F-12 medium containing 10% foetal bovine serum and 10 μg/mL Blasticidin, 200 μg/mL Hygromycin B, and 100 μg/mL Zeocin at 37° C., 5% CO2. For expansion or maintenance cultures, cells were treated with 0.25%-Trypsin-EDTA, washed and centrifuged, and then inoculated in 6-cm cell culture dishes with 2.5×10^5lls per cell culture dish (final volume: 5 mL).
Prior to the patch clamp detection, cells were separated with 0.25%-Trypsin-EDTA and 6.5×10^3 cells were spread onto coverslips and incubated (final volume: 500 μL) in 24-well plates for 18 hours, then the test was performed.
50 mM CsCl, 10 mM NaCl, 10 mM HEPES, 60 mM CsF, 20 mM EGTA, and pH was adjusted to 7.2 with CsOH. • Instrument information is provided in Table 2 below:
Prior to Nav1.8 channel current testing, a blank control solution (DMSO) was diluted into 10 ml of extracellular fluid as the working solution. Positive controls and subjects were first diluted with different doses of DMSO depending on the final concentration before being diluted as working solution using extracellular fluid. 100 nM TTX was added to each working solution to block the TTX-S current. The working solution was sonicated for 20 min before performing the patch clamp test detection.
Patch clamp manipulation: firstly, the capillary glass tube was drawn into a recording electrode using a microelectrode puller, then the electrode filled with intracellular fluid was loaded into the microelectrode holder, and the microelectrode manipulator was manoeuvred under an inverted microscope to immerse the electrode into the extracellular fluid and record the electrode resistance (Rpip). The electrode was then slowly contacted to the cell surface and negative pressure suction was given to form a GQ2 seal. At this time, fast capacitance compensation was performed and negative pressure was continually applied to suction through the cell membrane to form a whole-cell recording pattern. Finally, slow capacitance compensation was performed and experimental parameters such as series resistance (Rs) were recorded. No leakage compensation was given.
Drug administration was initiated when the Nav1.8 current was stabilized for whole-cell recordings, and the next concentration was detected after each drug concentration had acted for approximately 5 min (or until the current was stable). Cell-lined coverslips were placed in the recording bath under an inverted microscope, and the blank control external solution as well as the working solution of the compound to be tested flowed sequentially from low to high concentrations through the recording bath by using gravitational perfusion and thus acted on the cells, and a peristaltic pump was used to exchange fluids during the recording. The current detected by each cell in the compound-free external fluid served as its own control. Each concentration was repeated independently 2-3 times. All electrophysiological experiments were performed at room temperature.
The voltage stimulation scheme for whole-cell patch-clamp recording of Nav1.8 currents was as follows: when a whole-cell seal was formed, the voltage was clamped at −120 mV. The resting state recording of sodium currents was performed by maintaining the voltage for 5s and then depolarizing it to 0 mV, and then administering a depolarizing pulse (TP1) to 0 m V for 50 ms for detecting the resting state sodium currents. For half-inactivated state recording, the voltage was first stepped at different voltages and maintained for 5s and then a depolarizing pulse was given to 0 mV to detect the Vhalf. […]

[1] = Stability of the compound in liver microsomes (human); format: in vitro ADME; details: 1 μM compound, 0.5 mg protein/mL
Procedure: (§1) 2.1.1. working solution: 5 μL of test or control compound stock solution (10 mM DMSO solution) was diluted with 495 μL of acetonitrile (ACN) to obtain an intermediate stock solution (100 μM, 99% ACN).
(§2) 2.2.2 Preparation procedure: An appropriate amount of NADPH powder was weighed and diluted with 10 mM MgCl2 buffer (working solution concentration: 10 mM; final reaction system concentration: 1 mM).
(§3) 2.3.2 Preparation procedure: The appropriate concentration of liver microsomal working solution was prepared in 100 mM potassium phosphate buffer;
(§4) Acetonitrile (ACN) solution at 4° C. containing 200 ng/mL of Tolbutamide and 200 ng/ml of labetalol as internal standards 2.5. Operation steps:
(§5) 2.5.2. Diluting liver microsomes with 100 mM potassium phosphate buffer to a concentration of 0.56 mg/mL.
(§6) 2.5.3. Transferring 445 μL of liver microsomal working solution (0.56 mg/mL) to pre-heated incubation plates T60 and NCF60, and then pre-heating the incubation plates T60 and NCF60 for 10 minutes at 37° C. with shaking. Transferring 54 μL of liver microsomes to each well of the blank plate, adding 6 μL of NAPDH coenzyme solution to the blank plate, and finally transferring 180 μL of termination solution to the blank plate.
(§7) 2.5.4 Adding 5 μL of compound working solution (100 μM) to the incubation plates T60 and NCF60 containing liver microsomes and mixing three times.
(§8) 2.5.5. Adding 50 μL of buffer to the NCF60 plate and mixing three times, starting the timer and incubating at 37° C. for 60 min with the plate shaking.
(§9) 2.5.6. Adding 180 μL of quenching solution and 6 μL of NAPDH coenzyme working solution sequentially to quenching plate TO, making sure that the plate was cold to prevent volatilization of the incubation solution.
(§10) 2.5.7. For plate T60, mixing well three times and immediately transferring 54 μL of mixing solution (0-min time point) to quenching plate TO, then adding 44 μL of NAPDH coenzyme working solution to incubation plate T60. Starting the timer:
(§11) 2.5.8. At the 5, 15, 30, 45 and 60 minute time points, adding 180 μL of quenching solution to the quenching plate and transferring 60 μL of reaction solution from the T60 plate to the quenching plate at each time point.
(§12) 2.5.9. For NCF60 plates, mixing well and transferring 60 μL of reaction solution from the NCF60 incubating solution to a quenching plate containing 180 μL of quenching solution at 60th minute.
(§13) 2.5.10. All plates were mixed on a shaker for 10 min and then centrifuged at 4000 rpm at 4° C. for 20 min.
(§14) 2.5.11. Transferring 80 μL of supernatant to 240 μL of HPLC water and mixing on a
(§15) 2.6.1. Calculating t1/2 and Clint (mic) values based on first-order elimination kinetics: […]

[2] = Stability of the compound in liver microsomes (mouse); format: in vitro ADME, CD-1 mouse; details: 1 μM compound, 0.5 mg protein/mL
Procedure: as §1, §2, §3, §4, §5, §6, §7, §8, §9, §10, §11, §12, §13, §14, §15

[3] = Stability of the compound in liver microsomes (rat); format: in vitro ADME, SD rat; details: 1 μM compound, 0.5 mg protein/mL
Procedure: as §1, §2, §3, §4, §5, §6, §7, §8, §9, §10, §11, §12, §13, §14, §15

CYP1A2 = CYP1A2 (Homo sapiens (Human), UniProt P05177); test: Human liver microsomal CYP inhibition test, CYP1A2; format: in vitro ADME; details: microsomes
Procedure: (§16) 3.1 Buffer solutions: (1) potassium phosphate 100 mM; (2) magnesium chloride, 33 mM;
(§17) 3.2.3 Reservoir for compounds to be tested: Dissolving the compounds to be tested in DMSO to form a 10 mM DMSO solution.
(§18) 3.4.1 Preparation of human liver microsomal working solution (1.27×) (final concentration: 0.2 mg/mL)
(§19) 3.5.3 Adding 20 μL of substrate solution to the appropriate wells and 20 μL of potassium phosphate buffer to the blank wells;
(§20) 3.5.4 Adding 2 μL of different concentrations of target compounds (final concentrations from 0.05 μM to 50 μM, 7 concentrations in total) or standard inhibitors to each well, with 2 μL of methanol solution in the non-inhibitor and blank wells;
(§21) 3.5.5 Adding 1.012 mL of liver microsomes to 78.988 mL of potassium phosphate buffer, then adding 158 μL of liver microsomes solution to all wells; preheating the well plate for 10 minutes in a 37° C. water bath;
(§22) 3.5.6 Weighing 129.1 mg NADPH (purchased from SyncoZymes Co. Ltd.) and adding to 15.0 mL of 33 Mm MgCl2 solution to give a 10 mM concentration, adding 20 μL to each well;
(§23) 3.5.7 Mixing and incubating the well plate in a 37° C. water bath for 10 minutes, then adding 400 μL of cold termination solution at the appropriate time point;
(§24) 3.5.8 Centrifuging the sample at 4000 rpm for 20 minutes to precipitate the protein. Transferring 200 μL of supernatant to 100 μL of HPLC water and shaking for 10 minutes. The samples were analyzed by LC/MS/MS;
(§25) Percentage inhibition was plotted for blank control and different concentrations of target compounds by using XL fitting or SigmaPlot and the data were analyzed by non-linear regression. IC50 values were determined by using either 3-parameter or 4-parameter logistic equations.

CYP2C9 = CYP2C9 (Homo sapiens (Human), UniProt P11712); test: Human liver microsomal CYP inhibition test, CYP2C9; format: in vitro ADME; details: human liver microsomes 0.2 mg/mL; substrate Diclofenac
Procedure: as §16, §17, §18, §19, §20, §21, §22, §23, §24, §25

CYP2C19 = CYP2C19 (Homo sapiens (Human), UniProt P33261); test: Human liver microsomal CYP inhibition test, CYP2C19; format: in vitro ADME; details: human liver microsomes 0.2 mg/mL; substrate S-mephenytoin
Procedure: as §16, §17, §19, §20, §21, §22, §23, §24, §25

CYP2D6 = CYP2D6 (Homo sapiens (Human), UniProt P10635); test: Human liver microsomal CYP inhibition test, CYP2D6; format: in vitro ADME; details: human liver microsomes 0.2 mg/mL; substrate Dextromethorphan
Procedure: as §16, §17, §18, §19, §20, §21, §22, §23, §24, §25

CYP3A-M = CYP3A-M (Homo sapiens, UniProt P08684); test: Human liver microsomal CYP inhibition test, CYP3A-M (midazolam); format: in vitro ADME; details: human liver microsomes 0.2 mg/mL; substrate Midazolam
Procedure: as §16, §17, §18, §19, §20, §21, §22, §23, §24, §25

Nav1.8 sodium channel, sequence (Q9Y5Y9 whole entry): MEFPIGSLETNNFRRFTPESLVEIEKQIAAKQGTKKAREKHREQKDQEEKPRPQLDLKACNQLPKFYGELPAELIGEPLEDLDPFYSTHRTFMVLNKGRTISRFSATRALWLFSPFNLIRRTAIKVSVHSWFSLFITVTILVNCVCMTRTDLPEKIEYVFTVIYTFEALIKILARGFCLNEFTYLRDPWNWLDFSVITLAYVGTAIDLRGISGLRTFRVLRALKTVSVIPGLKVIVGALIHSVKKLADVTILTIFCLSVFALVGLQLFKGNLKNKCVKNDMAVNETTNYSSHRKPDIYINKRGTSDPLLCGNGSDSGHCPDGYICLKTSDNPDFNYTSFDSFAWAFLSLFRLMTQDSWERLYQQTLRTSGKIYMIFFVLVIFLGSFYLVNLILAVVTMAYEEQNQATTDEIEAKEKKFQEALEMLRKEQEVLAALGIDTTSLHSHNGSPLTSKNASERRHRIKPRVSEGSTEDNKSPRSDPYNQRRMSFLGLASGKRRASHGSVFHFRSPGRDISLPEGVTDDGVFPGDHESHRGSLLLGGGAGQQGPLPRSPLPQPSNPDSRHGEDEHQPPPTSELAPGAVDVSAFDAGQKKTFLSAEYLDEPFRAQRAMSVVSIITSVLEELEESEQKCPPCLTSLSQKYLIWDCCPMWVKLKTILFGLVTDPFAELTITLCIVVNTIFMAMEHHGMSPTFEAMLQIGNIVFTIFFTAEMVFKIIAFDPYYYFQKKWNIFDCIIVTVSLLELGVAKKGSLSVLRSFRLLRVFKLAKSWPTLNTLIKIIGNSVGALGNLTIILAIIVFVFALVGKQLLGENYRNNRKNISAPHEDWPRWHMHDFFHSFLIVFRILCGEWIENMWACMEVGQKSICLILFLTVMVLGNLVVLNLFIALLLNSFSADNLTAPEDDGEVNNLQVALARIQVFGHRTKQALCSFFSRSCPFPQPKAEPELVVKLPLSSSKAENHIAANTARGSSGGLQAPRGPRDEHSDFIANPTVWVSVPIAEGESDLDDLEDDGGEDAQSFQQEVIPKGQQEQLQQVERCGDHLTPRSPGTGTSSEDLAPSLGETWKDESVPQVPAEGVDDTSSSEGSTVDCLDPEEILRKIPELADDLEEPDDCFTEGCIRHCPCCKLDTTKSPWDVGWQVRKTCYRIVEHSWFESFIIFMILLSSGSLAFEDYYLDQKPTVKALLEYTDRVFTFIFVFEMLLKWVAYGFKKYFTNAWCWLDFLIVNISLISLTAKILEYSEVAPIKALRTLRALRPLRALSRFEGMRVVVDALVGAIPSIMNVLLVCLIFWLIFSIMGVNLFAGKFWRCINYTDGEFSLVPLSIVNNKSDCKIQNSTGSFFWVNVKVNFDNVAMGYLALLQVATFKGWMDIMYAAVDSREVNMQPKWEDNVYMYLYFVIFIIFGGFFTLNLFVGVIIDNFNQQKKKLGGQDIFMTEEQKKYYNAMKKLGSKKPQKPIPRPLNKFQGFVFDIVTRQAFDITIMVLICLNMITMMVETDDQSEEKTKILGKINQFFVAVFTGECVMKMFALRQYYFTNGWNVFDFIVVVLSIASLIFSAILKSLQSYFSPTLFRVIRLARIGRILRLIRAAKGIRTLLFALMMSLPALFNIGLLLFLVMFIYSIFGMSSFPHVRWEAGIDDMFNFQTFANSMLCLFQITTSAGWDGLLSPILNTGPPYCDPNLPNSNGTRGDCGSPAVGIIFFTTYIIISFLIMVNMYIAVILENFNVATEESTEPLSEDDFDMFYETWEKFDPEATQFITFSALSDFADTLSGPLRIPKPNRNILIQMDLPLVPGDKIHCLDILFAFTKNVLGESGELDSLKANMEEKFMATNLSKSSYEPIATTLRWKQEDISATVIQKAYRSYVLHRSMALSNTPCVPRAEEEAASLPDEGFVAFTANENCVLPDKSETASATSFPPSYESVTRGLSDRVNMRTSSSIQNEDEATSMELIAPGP
CYP1A2, sequence (P05177 whole entry): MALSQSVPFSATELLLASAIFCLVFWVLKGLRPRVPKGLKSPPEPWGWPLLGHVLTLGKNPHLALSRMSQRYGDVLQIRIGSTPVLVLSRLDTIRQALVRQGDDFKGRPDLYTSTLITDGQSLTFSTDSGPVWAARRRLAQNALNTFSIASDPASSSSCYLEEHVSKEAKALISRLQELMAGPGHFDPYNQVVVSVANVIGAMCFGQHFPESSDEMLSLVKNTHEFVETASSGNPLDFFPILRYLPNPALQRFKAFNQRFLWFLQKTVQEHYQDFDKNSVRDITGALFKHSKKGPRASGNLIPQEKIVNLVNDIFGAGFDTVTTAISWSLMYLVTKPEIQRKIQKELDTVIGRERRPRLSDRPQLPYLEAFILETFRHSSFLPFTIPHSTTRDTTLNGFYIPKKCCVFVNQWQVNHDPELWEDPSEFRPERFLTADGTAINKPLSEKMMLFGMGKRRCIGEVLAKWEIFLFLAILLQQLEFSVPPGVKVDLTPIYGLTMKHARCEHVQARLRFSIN
CYP2C9, sequence (P11712 whole entry): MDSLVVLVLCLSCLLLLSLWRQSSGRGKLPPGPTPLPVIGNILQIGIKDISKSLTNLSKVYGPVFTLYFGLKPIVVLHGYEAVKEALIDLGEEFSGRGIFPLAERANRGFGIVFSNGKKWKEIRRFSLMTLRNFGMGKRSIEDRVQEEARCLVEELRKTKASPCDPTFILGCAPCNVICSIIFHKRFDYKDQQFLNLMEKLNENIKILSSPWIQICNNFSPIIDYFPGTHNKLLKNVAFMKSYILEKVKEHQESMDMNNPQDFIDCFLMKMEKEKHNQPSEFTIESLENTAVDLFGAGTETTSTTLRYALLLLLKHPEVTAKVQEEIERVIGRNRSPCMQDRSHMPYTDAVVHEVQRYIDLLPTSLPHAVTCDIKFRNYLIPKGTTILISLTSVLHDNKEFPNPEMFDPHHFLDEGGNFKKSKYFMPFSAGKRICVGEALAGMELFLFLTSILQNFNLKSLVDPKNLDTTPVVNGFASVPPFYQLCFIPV
CYP2D6, sequence (P10635 whole entry): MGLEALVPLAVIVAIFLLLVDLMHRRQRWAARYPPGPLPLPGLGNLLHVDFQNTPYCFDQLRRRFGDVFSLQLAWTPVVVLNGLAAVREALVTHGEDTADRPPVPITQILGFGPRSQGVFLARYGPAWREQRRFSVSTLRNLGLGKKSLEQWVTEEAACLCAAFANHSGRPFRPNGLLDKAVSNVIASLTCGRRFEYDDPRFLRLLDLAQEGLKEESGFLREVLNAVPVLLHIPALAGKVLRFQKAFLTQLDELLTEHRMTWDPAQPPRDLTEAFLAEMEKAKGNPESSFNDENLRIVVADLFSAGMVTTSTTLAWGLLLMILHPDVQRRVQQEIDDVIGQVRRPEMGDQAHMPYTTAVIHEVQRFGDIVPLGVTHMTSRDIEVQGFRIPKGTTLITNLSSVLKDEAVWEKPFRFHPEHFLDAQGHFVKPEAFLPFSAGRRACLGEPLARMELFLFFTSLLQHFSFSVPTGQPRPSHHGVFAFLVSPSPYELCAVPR
CYP2C19, sequence (P33261 whole entry): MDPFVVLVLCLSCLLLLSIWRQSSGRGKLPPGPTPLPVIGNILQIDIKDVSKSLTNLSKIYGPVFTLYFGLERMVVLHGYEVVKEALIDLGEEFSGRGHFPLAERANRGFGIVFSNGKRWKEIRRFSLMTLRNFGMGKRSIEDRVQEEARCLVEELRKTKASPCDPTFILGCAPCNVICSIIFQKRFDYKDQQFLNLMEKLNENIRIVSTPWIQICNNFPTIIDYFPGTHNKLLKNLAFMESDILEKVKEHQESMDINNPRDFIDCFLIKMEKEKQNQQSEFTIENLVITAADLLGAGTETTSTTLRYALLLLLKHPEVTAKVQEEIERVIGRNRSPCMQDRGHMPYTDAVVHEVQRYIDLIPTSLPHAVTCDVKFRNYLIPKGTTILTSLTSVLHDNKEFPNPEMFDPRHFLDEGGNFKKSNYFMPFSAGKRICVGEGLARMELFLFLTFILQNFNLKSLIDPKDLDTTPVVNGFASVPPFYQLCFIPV
CYP3A-M, sequence (P08684 2-503 limits assumed): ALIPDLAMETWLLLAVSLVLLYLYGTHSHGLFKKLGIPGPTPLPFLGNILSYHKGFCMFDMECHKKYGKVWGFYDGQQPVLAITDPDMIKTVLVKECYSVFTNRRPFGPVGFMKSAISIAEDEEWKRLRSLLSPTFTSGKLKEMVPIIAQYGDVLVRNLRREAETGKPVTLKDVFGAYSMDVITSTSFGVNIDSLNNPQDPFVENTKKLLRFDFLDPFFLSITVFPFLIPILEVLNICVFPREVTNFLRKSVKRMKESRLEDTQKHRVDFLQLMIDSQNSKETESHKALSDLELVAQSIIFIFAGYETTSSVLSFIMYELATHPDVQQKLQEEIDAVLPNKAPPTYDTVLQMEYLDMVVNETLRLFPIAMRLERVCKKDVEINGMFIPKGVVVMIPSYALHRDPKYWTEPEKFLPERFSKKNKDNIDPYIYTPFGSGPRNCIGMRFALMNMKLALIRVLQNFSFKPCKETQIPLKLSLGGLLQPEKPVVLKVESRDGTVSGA

Row | IC50 (Nav1.8 sodium channel) [µM] | Human liver microsomes T½ ([1]; 37° C.) [min] | Human liver microsomes Residual (T = 60 min) ([1]; T = 60 min) [%] | Mouse liver microsomes T½ ([2]; 37° C.) [min] | Mouse liver microsomes Residual (T = 60 min) ([2]; T = 60 min) [%] | Rat liver microsomes T½ ([3]; 37° C.) [min] | Rat liver microsomes Residual (T = 60 min) ([3]; T = 60 min) [%] | SMILES | Blocking rate(%) @10 nM (Nav1.8 sodium channel) [%] | Blocking rate (%) @3 nM (Nav1.8 sodium channel; 3 nM) [%] | IC50 (CYP1A2) [µM] | IC50 (CYP2C9) [µM] | IC50 (CYP2C19) [µM] | IC50 (CYP2D6) [µM] | IC50 (CYP3A-M) [µM]
1 | 0.0013 | 80.6 | 58.4 | 41.9 | 37.1 | 18.9 | 11.1 | COc1c([C@H]2[C@H](C(=O)Nc3ccnc(C(N)=O)c3)N[C@@](C)(C(F)(F)F)[C@H]2C)ccc(F)c1F [Compound 1, 4-((2R,3S,4S,5R)-3-(3,4-difluoro-2-methoxyphenyl)-4,5-dimethyl-5-(trifluoromethyl)pyrrolidine-2-carboxamido)pyridine amide] | 97.98 | – | – | – | – | – | –
2 | – | – | – | – | – | – | – | COc1c([C@H]2[C@H](C(=O)Nc3ccc(F)c(C(=N)NO)c3)N[C@@](C)(C(F)(F)F)[C@H]2C)ccc(F)c1F.Cl [Compound 10, (2R,3S,4S,5R)-3-(3,4-difluoro-2-methoxyphenyl)-aza-(4-fluoro-3-(aza-hydroxycarbamimidoyl)phenyl)-4,5-dimethyl-5-(trifluoromethyl) pyrrolidine-2-carboxamide hydrochloride] | 99.13 | 95.18 | > 50 | > 50 | 3.05 | > 50 | 39.3
